From ChEMBL document CHEMBL1201862, “PubChem BioAssay data set” (2004)
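In this assay, cells in 96-well plates receive the compound at five concentrations for 48 hours. Endpoints are linearly interpolated between the surrounding concentrations. Abbreviation: GI50, concentration required for 50% inhibition of growth.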 Calls of active or inactive are those of the source. No stated cut-off is given here; in the data, active = GI50 up to about 1.1 µM and inactive = higher.

Legend:
Test in all cases: inhibition of tumour cell growth, NCI panel, 48 h
SW-620 = tested on: SW-620
NCI-H522 = tested on: NCI-H522
MOLT-4 = tested on: MOLT-4
HCT-116 = tested on: HCT-116
Malme-3M = tested on: Malme-3M
NCI-H23 = tested on: NCI-H23
MCF7 = tested on: MCF7
M14 = tested on: M14
A549 = tested on: A549
UACC-62 = tested on: UACC-62
NCI/ADR-RES = tested on: NCI/ADR-RES
Hs-578T = tested on: Hs-578T
SK-MEL-28 = tested on: SK-MEL-28
SNB-19 = tested on: SNB-19
HOP-92 = tested on: HOP-92
KM12 = tested on: KM12
MDA-MB-435 = tested on: MDA-MB-435

Row | SMILES | GI50 (SW-620) | GI50 (NCI-H522) | GI50 (MOLT-4) | GI50 (HCT-116) | GI50 (Malme-3M) | GI50 (NCI-H23) | GI50 (MCF7) | GI50 (M14) | GI50 (A549) | GI50 (UACC-62) | GI50 (NCI/ADR-RES) | GI50 (Hs-578T) | GI50 (SK-MEL-28) | GI50 (SNB-19) | GI50 (HOP-92) | GI50 (KM12) | GI50 (MDA-MB-435)
1 | COP(=O)(Cc1ccccc1)Cc1ccccc1 | > 100 µM (inactive) | > 100 µM (inactive) | > 100 µM (inactive) | > 100 µM (inactive) | > 100 µM (inactive) | > 100 µM (inactive) | > 100 µM (inactive) | > 100 µM (inactive) | > 100 µM (inactive) | > 100 µM (inactive) | > 100 µM (inactive) | > 100 µM (inactive) | > 100 µM (inactive) | > 10 µM (inactive) |  |  | 
2 | O=c1oc2ccc(Cl)cc2cc1-c1cn2cc(Cl)ccc2n1 | > 32.3 µM (inactive) | 0.74 µM (active) | 6.46 µM (inactive) | 6.3 µM (inactive) | 0.698 µM (active) | > 100 µM (inactive) | 1.64 µM (inactive) | 4.46 µM (inactive) | 14.1 µM (inactive) | 0.574 µM (active) | 11.4 µM (inactive) |  | > 100 µM (inactive) |  | > 100 µM (inactive) | 2.54 µM (inactive) | 0.24 µM (active)
3 | COC(=O)Cn1c(=O)oc2nc(-c3ccccc3)cc(C(F)(F)F)c21 | 73.1 µM (inactive) | 25.3 µM (inactive) | 23.6 µM (inactive) | 42.9 µM (inactive) |  | > 100 µM (inactive) | > 100 µM (inactive) | > 100 µM (inactive) | 82 µM (inactive) | > 100 µM (inactive) | 23.8 µM (inactive) |  | 24.4 µM (inactive) | > 100 µM (inactive) | 27.2 µM (inactive) | 69.8 µM (inactive) | 49.4 µM (inactive)
4 | CCOC(=O)COc1cc(-c2ccccc2F)nc2cc3c(cc12)OCO3 | > 100 µM (inactive) |  | 27.8 µM (inactive) | 72.3 µM (inactive) | > 100 µM (inactive) | > 100 µM (inactive) | > 100 µM (inactive) | > 100 µM (inactive) | > 100 µM (inactive) | > 100 µM (inactive) | > 100 µM (inactive) |  | > 100 µM (inactive) |  | 19.7 µM (inactive) | > 100 µM (inactive) | > 100 µM (inactive)
5 | C=CCOC(=O)C1=C(CCC[C@@H](C)O[Si](C)(C)C(C)(C)C)N=C(N)N2[C@H](CCO)CC[C@@H]12 |  | 12.7 µM (inactive) | 10.5 µM (inactive) | 8.28 µM (inactive) | 18 µM (inactive) | 17.7 µM (inactive) | 7.69 µM (inactive) | 13.9 µM (inactive) | 10.3 µM (inactive) | 15.8 µM (inactive) | 19.7 µM (inactive) |  | 17.5 µM (inactive) | 15.5 µM (inactive) | 13.6 µM (inactive) | 11.3 µM (inactive) | 14.7 µM (inactive)
6 | COc1ccc(OC)c2c(C(C)=O)cccc12 | > 100 µM (inactive) | > 100 µM (inactive) | 81.8 µM (inactive) | > 100 µM (inactive) | > 100 µM (inactive) | > 100 µM (inactive) | > 100 µM (inactive) |  | > 100 µM (inactive) | > 100 µM (inactive) | > 100 µM (inactive) | 88.9 µM (inactive) | > 100 µM (inactive) | > 100 µM (inactive) |  | > 100 µM (inactive) | 
7 | CCN(CC)CCCNc1n[n+]([O-])c2ccccc2[n+]1[O-] | 15.1 µM (inactive) | 8.22 µM (inactive) | 2.73 µM (inactive) | 11 µM (inactive) | 11.3 µM (inactive) | 11.6 µM (inactive) | 3.92 µM (inactive) | 22.4 µM (inactive) | 12.6 µM (inactive) | 8.43 µM (inactive) | 42.4 µM (inactive) |  | 63.1 µM (inactive) | 25.9 µM (inactive) | 27.1 µM (inactive) | 15 µM (inactive) | 38.4 µM (inactive)
